pEC50: −log10 of the molar value. In brackets after ≈: the same amount, converted by molar mass. Read-outs that look alike come from different tables or passages of the source. Peptide text beside a SMILES is read from it. * marks the point of attachment. Acm = CC(=O)NC*
What was measured:
Type in all cases: cell-based
[1] = system: Escherichia coli ATCC 25922
Summary of the method: (§1)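 Standard broth microdilution MIC in 1% Bacto Peptone water, inoculum 2×10^6 CFU/ml of mid-log-phase bacteria grown in 2% peptone water. Run in triplicate; peptide concentration in wells verified by HPLC.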

[2] = system: Staphylococcus aureus ATCC 25923
Summary of the method: as §1

human red blood cells = assay: Hemolytic assay; details: for % Hemolysis 10 μg/ml / % Hemolysis 100 μg/ml: red cells of human
Protocol: The hemolytic activities of the peptides were determined using fresh human red blood cells. 8 ml blood was taken from a healthy person. 4 ml blood was transferred to a polycarbonate tube containing heparin to a final concentration of 10 U/ml, and the remaining 4 ml blood was transferred to a glass tube containing EDTA with final concentration of 15% EDTA. The erythrocytes were isolated from heparin-treated blood by centrifugation in 1500 rpm for 10 min and washed three times with phosphate-buffered saline (PBS) to remove plasma and buffy coat. The cell pellet was resuspended in PBS to make the final volume of 4 ml. The peptide was diluted to a concentration of 2 mg/ml and 0.1 mg/ml. The peptide was further diluted to the concentrations as stated in Table 15. For each tube PBS was added first, then RBCs and peptide solutions. The hematocrit in the blood treated with EDTA was determined after 30 min with Sysmex K-1000, and the resuspended RBCs were diluted into 10% hematocrit. RBCs in PBS (1%) with and without peptides (Table 15) were incubated in a shaker at […] for 1 hour and then centrifuged at 4000 rpm for 5 min. The supernatant were carefully transferred to new polycarbonate tubes and the absorbance of the supernatant was measured at 540 nm. Baseline hemolysis was hemoglobin released in the presence of PBS, and 100% hemolysis was hemoglobin released in the presence of 0.1% Triton X-100.

Row | Compound | MIC E. coli ([1]; ATCC 25922) [µg/mL] | MIC S. aureus ([2]; ATCC 25923) [µg/mL] | % Hemolysis 10 μg/ml (human red blood cells) [%] | % Hemolysis 100 μg/ml (human red blood cells) [%] | MIC E. coli ([1]; Table 6) [µg/mL] | MIC S. aureus ([2]; Table 6, unit assumed) [µg/mL] | MIC E. coli ([1]; Table 12) [µg/mL] | MIC S. aureus ([2]; Table 12) [µg/mL] | EC 50 (human red blood cells) [µg/mL] | pEC50 (human red blood cells) | MIC E. coli ([1]; Table 3) [µg/mL] | MIC S. aureus ([2]; Table 3, unit assumed) [µg/mL]
1 | CSCC[C@H](NC(=O)[C@H](CCCNC(=N)N)NC(=O)[C@H](Cc1c[nH]c2ccccc12)NC(=O)[C@H](CCC(N)=O)NC(=O)[C@H](C)NC(=O)[C@H](CCCNC(=N)N)NC(=O)[C@H](CCCNC(=N)N)NC(=O)[C@H](CSCNC(C)=O)NC(=O)[C@H](CCCCN)NC(=O)[C@@H](N)Cc1ccccc1)C(=O)N[C@@H](CCCCN)C(=O)N[C@@H](CCCCN)C(=O)N[C@@H](CC(C)C)C(=O)NCC(=O)N[C@@H](C)C(=O)O [LFB A6] (H-FKC(Acm)RRAQWRMKKLGA-OH; N-terminus assumed) | >200 | >200 | 2.78 | 3.27 |  |  |  |  |  |  |  | 
2 | CSCC[C@H](NC(=O)[C@H](C)NC(=O)[C@H](Cc1c[nH]c2ccccc12)NC(=O)[C@H](CCC(N)=O)NC(=O)[C@H](Cc1c[nH]c2ccccc12)NC(=O)[C@H](CCCNC(=N)N)NC(=O)[C@H](CC(C)C)NC(=O)[C@H](CSCNC(C)=O)NC(=O)[C@H](CCCCN)NC(=O)[C@H](C)N)C(=O)N[C@@H](CCCNC(=N)N)C(=O)N[C@@H](CCCCN)C(=O)N[C@H](C(=O)NCC(=O)NCC(=O)O)C(C)C [LFM A1, 9 W8] (H-AKC(Acm)LRWQWAMRKVGG-OH; N-terminus assumed) | 200 (≈ 107 µM) | >1000 | 2.8 | 3.7 |  |  |  |  |  |  |  | 
3 | CSCC[C@H](NC(=O)[C@H](CCCNC(=N)N)NC(=O)[C@H](Cc1c[nH]c2ccccc12)NC(=O)[C@H](CCC(N)=O)NC(=O)[C@H](Cc1c[nH]c2ccccc12)NC(=O)[C@H](CCCNC(=N)N)NC(=O)[C@H](CCCNC(=N)N)NC(=O)[C@H](Cc1c[nH]c2ccccc12)NC(=O)[C@H](CCCCN)NC(=O)[C@@H](N)Cc1ccccc1)C(=O)N[C@@H](CCCCN)C(=O)N[C@@H](CCCCN)C(=O)N[C@@H](CC(C)C)C(=O)NCC(=O)N[C@@H](C)C(=O)O [LFB W3, H2N-Phe-Lys-Trp-Arg-Arg-Trp-Gln-Trp-Arg-Met-Lys-Lys-Leu-Gly-Ala-COOH] | 20 (≈ 9.63 µM) | 20 (≈ 9.63 µM) | 2.3 | 3.8 | 20 (≈ 9.63 µM) | 20 (≈ 9.63 µM) |  |  |  |  |  | 
4 | CSCC[C@H](NC(=O)[C@H](CCCNC(=N)N)NC(=O)[C@H](Cc1ccc2ccccc2c1)NC(=O)[C@H](CCC(N)=O)NC(=O)[C@H](Cc1c[nH]c2ccccc12)NC(=O)[C@H](CCCNC(=N)N)NC(=O)[C@H](CCCNC(=N)N)NC(=O)[C@H](CSCNC(C)=O)NC(=O)[C@H](CCCCN)NC(=O)[C@@H](N)Cc1ccccc1)C(=O)N[C@@H](CCCCN)C(=O)N[C@@H](CCCCN)C(=O)N[C@@H](CC(C)C)C(=O)NCC(=O)N[C@@H](C)C(=O)O [LFB Nal8] | 10 (≈ 4.82 µM) | 50 (≈ 24.1 µM) | 3 | 4.7 |  |  |  |  |  |  |  | 
5 | CSCC[C@H](NC(=O)[C@H](CCCNC(=N)N)NC(=O)[C@H](Cc1ccc2ccccc2c1)NC(=O)[C@H](CCC(N)=O)NC(=O)[C@H](Cc1c(S(=O)(=O)c2c(C)c(C)c3c(c2C)CCC(C)(C)O3)[nH]c2ccccc12)NC(=O)[C@H](CCCNC(=N)N)NC(=O)[C@H](CCCNC(=N)N)NC(=O)[C@H](CSCNC(C)=O)NC(=O)[C@H](CCCCN)NC(=O)[C@@H](N)Cc1ccccc1)C(=O)N[C@@H](CCCCN)C(=O)N[C@@H](CCCCN)C(=O)N[C@@H](CC(C)C)C(=O)NCC(=O)N[C@@H](C)C(=O)O [LFB Nal8 PMC] | 20 (≈ 8.54 µM) | 10 (≈ 4.27 µM) | 6.96 | 18.86 |  |  |  |  |  |  |  | 
6 | CSCC[C@H](NC(=O)[C@H](CCCNC(=N)N)NC(=O)[C@H](Cc1c(S(=O)(=O)c2c(C)c(C)c3c(c2C)CCC(C)(C)O3)[nH]c2ccccc12)NC(=O)[C@H](CCC(N)=O)NC(=O)[C@H](Cc1ccc2ccccc2c1)NC(=O)[C@H](CCCNC(=N)N)NC(=O)[C@H](CCCNC(=N)N)NC(=O)[C@H](CSCNC(C)=O)NC(=O)[C@H](CCCCN)NC(=O)[C@@H](N)Cc1ccccc1)C(=O)N[C@@H](CCCCN)C(=O)N[C@@H](CCCCN)C(=O)N[C@@H](CC(C)C)C(=O)NCC(=O)N[C@@H](C)C(=O)O [LFB Nal6 PMC] | 25 (≈ 10.7 µM) | 20 (≈ 8.54 µM) | 2.8 | 17.8 |  |  |  |  |  |  |  | 
7 | H-FKWRRWQWRMKKLWA-OH [LFB W3, 14, H2N-Phe-Lys-Trp-Arg-Arg-Trp-Gln-Trp-Arg-Met-Lys-Lys-Leu-Trp-Ala-COOH] |  |  | 3.1 | 5.1 | 10 | 10 | 10 | 10 | >1000 | < 3.34 |  | 
8 | CSCC[C@H](NC(=O)[C@H](CCCNC(=N)N)NC(=O)[C@H](Cc1c[nH]c2ccccc12)NC(=O)[C@H](CCC(N)=O)NC(=O)[C@H](Cc1c[nH]c2ccccc12)NC(=O)[C@H](CCCNC(=N)N)NC(=O)[C@H](CCCNC(=N)N)NC(=O)[C@H](CSCNC(C)=O)NC(=O)[C@H](CCCCN)NC(=O)[C@@H](N)Cc1ccccc1)C(=O)N[C@@H](CCCCN)C(=O)N[C@@H](CCCCN)C(=O)N[C@@H](CC(C)C)C(=O)N[C@@H](Cc1c[nH]c2ccccc12)C(=O)N[C@@H](C)C(=O)O [LFB W14, H2N-Phe-Lys-Cys-Arg-Arg-Trp-Gln-Trp-Arg-Met-Lys-Lys-Leu-Trp-Ala-COOH] (H-FKC(Acm)RRWQWRMKKLWA-OH) | 20 (≈ 9.11 µM) | 25 (≈ 11.4 µM) | 3 | 4.1 | 20 (≈ 9.11 µM) | 25 (≈ 11.4 µM) |  |  |  |  |  | 
9 | CSCC[C@H](NC(=O)[C@H](C)NC(=O)[C@H](Cc1c[nH]c2ccccc12)NC(=O)[C@H](CCC(N)=O)NC(=O)[C@H](Cc1c[nH]c2ccccc12)NC(=O)[C@H](CCCNC(=N)N)NC(=O)[C@H](CC(C)C)NC(=O)[C@H](CSCNC(C)=O)NC(=O)[C@H](CCCCN)NC(=O)[C@@H](N)CCC(=O)O)C(=O)N[C@@H](CCCNC(=N)N)C(=O)N[C@@H](CCCCN)C(=O)N[C@H](C(=O)NCC(=O)NCC(=O)O)C(C)C [LFM A9 W8] (H-EKC(Acm)LRWQWAMRKVGG-OH; N-terminus assumed) | >1000 | >1000 | 2.5 | 3.5 |  |  |  |  |  |  |  | 
10 | CSCC[C@@H](NC(=O)[C@@H](CCCNC(=N)N)NC(=O)[C@@H](Cc1c[nH]c2ccccc12)NC(=O)[C@@H](CCC(N)=O)NC(=O)[C@@H](Cc1c[nH]c2ccccc12)NC(=O)[C@@H](CCCNC(=N)N)NC(=O)[C@@H](CCCNC(=N)N)NC(=O)[C@@H](CSCNC(C)=O)NC(=O)[C@@H](CCCCN)NC(=O)[C@H](N)Cc1ccccc1)C(=O)N[C@H](CCCCN)C(=O)N[C@H](CCCCN)C(=O)N[C@H](CC(C)C)C(=O)NCC(=O)N[C@H](C)C(=O)O [Enantio LFB 17-31] |  |  | 3.05 |  |  |  |  |  |  |  | 7.5 (≈ 3.63 µM) | 60 (≈ 29 µM)
11 | CSCC[C@H](NC(=O)[C@H](CCC(=O)O)NC(=O)[C@H](Cc1c[nH]c2ccccc12)NC(=O)[C@H](CCC(N)=O)NC(=O)[C@H](Cc1c[nH]c2ccccc12)NC(=O)[C@H](CCCNC(=N)N)NC(=O)[C@H](CC(C)C)NC(=O)[C@H](CSCNC(C)=O)NC(=O)[C@H](CCCCN)NC(=O)[C@@H](N)CCC(=O)O)C(=O)N[C@@H](CCCNC(=N)N)C(=O)N[C@@H](CCCCN)C(=O)N[C@H](C(=O)NCC(=O)NCC(=O)O)C(C)C [LFM W8, H2N-Glu-Lys-Cys-Leu-Arg-Trp-Gln-Trp-Glu-Met-Arg-Lys-Val-Gly-Gly-COOH] (H-EKC(Acm)LRWQWEMRKVGG-OH) | >1000 | 1000 (≈ 506 µM) | 2.6 | 4.8 |  |  |  |  |  |  |  | 
